From patent publication US12257214B2, “Compositions and methods comprising deoxy-pentitols” (The Charlotte Mecklenburg Hospital Authority, priority 2021, dated 2025)
Read-outs that look alike come from different tables or passages of the source.

How the values were obtained:
[1] = test system: alpha dystroglycan (α-DG); conditions: cited from earlier work
[2] = test system: prostate cancer cell line LNCaP; assay: LNCaP cell culture, growth and death (FIG. 5, FIG. 10); format: cell-based; conditions: for number of cancer cells / anticancer effect: 10 mM, 7 days (FIG. 10)
Procedure: A dose dependent decrease in cell density was clearly detected with 2-deoxyribitol treatment, but not with ribitol treatment.
Less than 50% of cells and 10% of cells were detected with the treatment of 10 mM and 50 mM 2-deoxyribitol, respectively.

[3] = test system: breast cancer cell line MCF7; assay: MCF7 cell culture, growth and death (FIG. 2); format: cell-based; conditions: MCF7, 0.4-50 mM, 3 day treatment
Procedure: From left-top-to-bottom: Control, 0.4 mM Drug, 2 mM rib, and 10 mM Drug; From right-top-to-bottom: 0.4 mM rib; 2 mM Drug; 10 mM rib; and 50 mM Drug.
However, this effect was not related to the enhanced expression of glycosylation of α-DG.

MCF7 cells = assay: Mammosphere formation (FIG. 4); format: cell-based; conditions: MCF7, Vitamin C 50 μM 5 days, then normal medium 6 days
Procedure: Cells were also treated with Vitamin C (VitC) at a concentration of 50 μM for 5 days (5d) and then returned to normal medium (NM) for 6 days (d6), without (lower left panel) or with 2-deoxyribitol (Drug, lower right panel). The formation of cancer mammospheres, considered to be cancer stem cell-rich population, can be seen in culture without Drug treatment, and with Vitamin C treatment only. Drug treatment greatly reduces to eliminates the formation of cancer mammospheres.
To examine mammosphere formation, MCF7 cells were grown for 11 days with or without 2-deoxyribitol (drug) treatment (FIG. 4, top panels). In addition, MCF7 cells were treated with Vitamin C at the concentration of 50 μM for 5 days and then returned to normal medium (“NM”) for 6 days (FIG. 4, lower panels).

[4] = Pei Lu et al., (2020) Sci Rep 10(1):4935

SMILES | glycosylation of α-DG [1, 4] | number of cancer cells / anticancer effect [2] | also measured
O=C[C@H](O)[C@H](O)[C@H](O)CO [ribose] | showed an effect of enhancing glycosylation of α-DG |  | 
O=P(O)(O)OC[C@@H](O)[C@@H](O)[C@@H](O)CO [ribitol-5-phosphate] | showed an effect of enhancing glycosylation of α-DG |  | 
OC[C@@H](O)[C@@H](O)[C@@H](O)CO [ribitol, reference compound] |  | did not show the same anticancer effects | glycosylation of α-DG ([1]; some cancer cells including MCF7, background statement): enhances glycosylation of α-DG; effect on cell growth, death and cell density ([2]; 2-50 mM, 4 days): slightly increased; effect on cell growth, death and morphology [3]: no clear effect on cell growth and morphology
O=C(CO)[C@H](O)[C@H](O)CO [ribulose] | showed an effect of enhancing glycosylation of α-DG |  | 
O=CC[C@H](O)[C@H](O)CO [2-deoxyribose, reference compound] |  | did not show the same anticancer effects | 
O=C1O[C@H]([C@@H](O)CO)C(O)=C1O [Vitamin C, reference compound] |  |  | number of mammospheres, Vitamin C then normal medium (MCF7 cells): greatly increased the number of well-defined mammospheres
